These results are taken from patent US20230381321A1, “CAMPTOTHECIN CONJUGATES” (priority 2022, published 2023).

By IC50 is commonly meant the point on the concentration scale where inhibition reaches its midpoint.

What all share (type): cell-based
The subject of assay [1] is non-small-cell lung cancer cells (Calu1). The experiment in a line: In vitro potency (CellTiter-Glo, 96 h) on Calu1. The following applies: read-out: Calu1 IC50. The protocol: (§1) In vitro potency was assessed on multiple cancer cell lines. All cell lines were authenticated by STR profiling at IDEXX Bioresearch and cultured for no more than 2 months after resuscitation. Cells cultured in log-phase growth were seeded for 24 hours in 96-well plates containing […] RPMI 1640 supplemented with 20% FBS. Serial dilutions of antibody-drug conjugates in cell culture media were prepared at 4x working concentrations, and 50 μL of each dilution was added to the 96-well plates. Following addition of test articles, cells were incubated with test articles for 4 days at […]. After 96 hours, growth inhibition was assessed by CellTiterGlo® (Promega, Madison, WI) and luminescence was measured on a plate reader.
(§2) Cell viability was determined by CellTiter-Glo staining after 96h exposure to ADC. ND=Not Determined. In the following tables, “Ex_” refers to a drug linker number. For example, “Ag4-Ex_4a” refers to a conjugate of an Ag4 antibody with drug linker 4a.
A general note: In ATP-based viability assays light output follows the ATP content of the culture.

Assay [2] has as its system acute myeloid leukemia cells (MOLM-13). The experiment in a line: In vitro potency (CellTiter-Glo, 96 h) on MOLM-13. The note with it: read-out: MOLM-13 IC50. How it is done: as §1, §2
Assay [3] relates to renal carcinoma cells (786-O). The experiment in a line: In vitro potency (CellTiter-Glo, 96 h) on 786-O. The note with it: read-out: 786-O IC50. The protocol:
as §1, §2

A further assay concerns melanoma cells (A2058). Put plainly: In vitro potency (CellTiter-Glo, 96 h) on A2058. The note with it: read-out: A2058 IC50. How it is done: as §1, §2
The test system of assay [4] is anaplastic large cell lymphoma cells (DEL). Put plainly: In vitro potency (CellTiter-Glo, 96 h) on DEL. The note with it: 96 h, read-out: DEL IC50. How it is done:
as §1, §2

The test system of assay [5] is Hodgkin's lymphoma cells (L540cy). The experiment in a line: In vitro potency (CellTiter-Glo, 96 h) on L540cy. The following applies: read-out: L540cy IC50. The protocol: as §1, §2
The subject of assay [6] is breast cancer cells (MDA-MB-231). Put plainly: In vitro potency (CellTiter-Glo, 96 h) on MDA-MB-231. The following applies: read-out: MDAMB 231 IC50. The protocol: as §1, §2
The nature of assay [7]: In vitro potency (CellTiter-Glo, 96 h) on Ls174T. The following applies: read-out: Ls174T IC50. The protocol:
as §1, §2

Assay [8] concerns B-lymphocyte cancer cells (SU-DHL4). Put plainly: In vitro potency (CellTiter-Glo, 96 h) on SU-DHL4. The following applies: read-out: SU-DHL-4 IC50. The protocol: as §1, §2
For assay [9], the system named is anaplastic large cell lymphoma cells (Karpas299). The experiment in a line: In vitro potency (CellTiter-Glo, 96 h) on Karpas299. The note with it: read-out: Karpas299 IC50. The protocol:
as §1, §2

Assay [10] has as its system pancreatic cancer cells (BxPC3). The experiment in a line: In vitro potency (CellTiter-Glo, 96 h) on BxPC3. The following applies: read-out: BxPC3 IC50. How it is done: as §1, §2
Assay [11] deals with anaplastic large cell lymphoma cells (DELBVR). The experiment in a line: In vitro potency (CellTiter-Glo, 96 h) on DELBVR. The following applies: read-out: DELBVR IC50. The protocol:
as §1, §2

The mark [12] stands for this setting: Homo sapiens, Calu-1, 96 h, CPT free drugs, CellTiter-Glo after 96 h exposure.
Setting [13] is: Homo sapiens, MOLM-13, 96 h, CPT free drugs, CellTiter-Glo after 96 h exposure.
Setting [14] is: Homo sapiens, A2058, 96 h, CPT free drugs, CellTiter-Glo after 96 h exposure.
The mark [15] stands for this setting: CPT free drugs, CellTiter-Glo after 96 h exposure.
[16] abbreviates: L540cy, 96 h, CPT free drugs, CellTiter-Glo after 96 h exposure.
Where [17] appears, read: 96 h, CPT free drugs, CellTiter-Glo after 96 h exposure.
Where [18] appears, read: Homo sapiens, MDA-MB-231, 96 h, CPT free drugs, CellTiter-Glo after 96 h exposure.
Setting [19] is: Homo sapiens, LS174T, CPT free drugs, CellTiter-Glo after 96 h exposure.
Where [20] appears, read: Homo sapiens, SU-DHL-4, 96 h, CPT free drugs, CellTiter-Glo after 96 h exposure.
Where [21] appears, read: Homo sapiens, KARPAS-299, 96 h, CPT free drugs, CellTiter-Glo after 96 h exposure.

Read-outs that look alike come from different tables or passages of the source.

For the compound `CC[C@@]1(O)C(=O)OCc2c1cc1n(c2=O)Cc2c-1nc1cc3c(c(Br)c1c2CN)OCO3` [Compound 5c], the IC50 in assay [1] (Homo sapiens, Calu-1, 96 h) was 4 nM; in assay [2] (Homo sapiens, MOLM-13, 96 h), 2 nM; in assay [3] (Homo sapiens, 786-0, 96 h), 1 nM; with melanoma cells (A2058) (Homo sapiens, A2058, 96 h), 5 nM; in assay [4], 0.3 nM; in [5] (L540cy, 96 h) it was 0.8 nM. Besides, the IC50 in [6] (Homo sapiens, MDA-MB-231, 96 h) turned out to be 2 nM; in assay [7] (Homo sapiens, LS174T, 96 h) it was 6 nM; in assay [8] (Homo sapiens, SU-DHL-4, 96 h), 0.5 nM; in [9] (Homo sapiens, KARPAS-299, 96 h) it was 1 nM; in [10] (Homo sapiens, BXPC-3, 96 h), 8 nM.
With `CC[C@@]1(O)C(=O)OCc2c1cc1n(c2=O)Cc2c-1nc1cc(F)c(C)c(C3=CCSCC3)c1c2CN` [Compound 6m], the IC50 in [1] (setting [12]) was 35 nM; in assay [2] (setting [13]), 7 nM; in the assay with melanoma cells (A2058) (setting [14]), 7 nM; in [4] (setting [15]) it was 2 nM; in assay [5] (setting [16]), 8 nM; in [11] (setting [17]), 6 nM. Further, the IC50 in [6] (setting [18]) worked out at 38 nM; in [7] (setting [19]) it was 22 nM; in assay [8] (setting [20]) it was 5 nM; in assay [9] (setting [21]) it was 12 nM.
Consider `CC[C@@]1(O)C(=O)OCc2c1cc1n(c2=O)Cc2c-1nc1cc(F)c(C)c(-c3cccs3)c1c2CN` [Compound 6n], for which the half-inhibitory concentration (IC50) in assay [1] (setting [12]) came to 56 nM; in [2] (setting [13]) it was 30 nM; with melanoma cells (A2058) (setting [14]), 16 nM; in assay [4] (setting [15]), 6 nM; in [5] (setting [16]), 17 nM; in assay [11] (setting [17]), 7 nM. In addition, the IC50 is 70 nM in assay [6] (setting [18]), 47 nM in [7] (setting [19]), 13 nM in assay [8] (setting [20]) and 24 nM in [9] (setting [21]).
For the compound `CC[C@@]1(O)C(=O)OCc2c1cc1n(c2=O)Cc2c-1nc1cc(F)c(C)c(-c3ccco3)c1c2CN` [Compound 6o], the IC50 in [1] (setting [12]) amounted to 26 nM; in [2] (setting [13]), 14 nM; in the assay on melanoma cells (A2058) (setting [14]) it was 4 nM; in assay [4] (setting [15]) it was 2 nM; in assay [5] (setting [16]), 5 nM; in [11] (setting [17]), 3 nM. The half-inhibitory concentration (IC50) in assay [6] (setting [18]) came out at 35 nM; in assay [7] (setting [19]), 9 nM; in assay [8] (setting [20]), 4 nM; in [9] (setting [21]), 8 nM.
Take `CC[C@@]1(O)C(=O)OCc2c1cc1n(c2=O)Cc2c-1nc1cc(F)c(C)c(-c3ccoc3)c1c2CN` [Compound 6p]: the IC50 amounted to 8 nM in assay [1] (setting [12]); 3 nM in assay [2] (setting [13]); 2 nM with melanoma cells (A2058) (setting [14]); 0.9 nM in [4] (setting [15]); 2 nM in [5] (setting [16]); 2 nM in assay [11] (setting [17]). The IC50 is 10 nM in assay [6] (setting [18]), 5 nM in [7] (setting [19]), 1 nM in [8] (setting [20]) and 3 nM in assay [9] (setting [21]).
`CC[C@@]1(O)C(=O)OCc2c1cc1n(c2=O)Cc2c-1nc1cc3c(cc1c2CNCCOC)OCO3` [Compound 7ag]: the half-inhibitory concentration (IC50) in assay [1] (Homo sapiens, Calu-1, 96 h) stood at 6 nM; in assay [2] (Homo sapiens, MOLM-13, 96 h) it was 2 nM; in [3] (Homo sapiens, 786-0, 96 h), 0.9 nM; in the assay on melanoma cells (A2058) (Homo sapiens, A2058, 96 h), 0.6 nM; in assay [4] it was 0.3 nM; in assay [5] (L540cy, 96 h), 0.9 nM. The half-inhibitory concentration (IC50) in assay [11] (96 h) is 0.3 nM; in assay [6] (Homo sapiens, MDA-MB-231, 96 h) it was 9 nM; in [7] (Homo sapiens, LS174T, 96 h), 3 nM; in [8] (Homo sapiens, SU-DHL-4, 96 h) it was 0.8 nM; in assay [9] (Homo sapiens, KARPAS-299, 96 h), 1 nM.
Take `CC[C@@]1(O)C(=O)OCc2c1cc1n(c2=O)Cc2c-1nc1cc3c(cc1c2CNC1CCOC1)OCO3` (stereo partly shown) [Compound 7ah]: the IC50 amounted to 10 nM in assay [1] (Homo sapiens, Calu-1, 96 h); 0.9 nM in assay [2] (Homo sapiens, MOLM-13, 96 h); 0.8 nM in assay [3] (Homo sapiens, 786-0, 96 h); 0.5 nM in the assay on melanoma cells (A2058) (Homo sapiens, A2058, 96 h); 0.2 nM in assay [4]; 0.8 nM in assay [5] (L540cy, 96 h). Also, the IC50 in assay [11] (96 h) worked out at 0.2 nM; in [6] (Homo sapiens, MDA-MB-231, 96 h), 6 nM; in [7] (Homo sapiens, LS174T, 96 h) it was 2 nM; in assay [8] (Homo sapiens, SU-DHL-4, 96 h), 0.5 nM; in assay [9] (Homo sapiens, KARPAS-299, 96 h) it was 1 nM.
Regarding `CC[C@@]1(O)C(=O)OCc2c1cc1n(c2=O)Cc2c-1nc1cc3c(cc1c2CNC(=O)OCc1ccc(NC(=O)[C@H](CCCCN)NC(=O)[C@@H](NC(=O)CCOCCOCCOCCOCCNC(=O)CCN2C(=O)C=CC2=O)C(C)C)cc1)CCO3` [Compound 14, [4-[[(2S)-6-amino-2-[[(2S)-2-[3-[2-[2-[2-[2-[3-(2,5-dioxopyrrol-1-yl)propanoylamino]ethoxy]ethoxy]ethoxy]ethoxy]propanoylamino]-3-methyl-butanoyl]amino]hexanoyl]amino]phenyl]methyl N-[[(5S)-5-ethyl-5-hydroxy-6,10-dioxo-7,20-dioxa-11,24-diazahexacyclo[11.11.0.02,11.04,9.015,23.017,21]tetracosa-1(13),2,4(9),14,16,21,23-heptaen-14-yl]methyl]carbamate;2,2,2-trifluoroacetic acid], the IC50 in [1] (setting [15]) stood at 9 nM; in [2] (setting [15]), 22 nM; in assay [3] (setting [15]) it was 4 nM; in the assay on melanoma cells (A2058) (setting [15]) it was 2 nM; in assay [5] (setting [15]), 2 nM; in assay [11] (setting [15]) it was 1 nM. Besides, the IC50 in assay [6] (setting [15]) came to 5 nM; in [7] (setting [15]) it was 3 nM; in assay [8] (setting [15]) it was 1 nM; in assay [9] (setting [15]), 4 nM; in assay [10] (setting [15]) it was 6 nM.
With `CC[C@@]1(O)C(=O)OCc2c1cc1n(c2=O)Cc2c-1nc1cc3c(cc1c2CNC(=O)CO)CCO3` [Compound 15c, (S)-N-((12-ethyl-12-hydroxy-8,11-dioxo-2,3,6,9,11,12-hexahydro-8H-furo [3,2 g]pyrano[3′,4′:6,7]indolizino[1,2-b]quinolin-5-yl)methyl)-2-hydroxyacetamide], the IC50 in assay [1] (setting [12]) was 184 nM; in assay [2] (setting [13]), 18 nM; in [3] (Homo sapiens, 786-0, 96 h, CPT free drugs, CellTiter-Glo after 96 h exposure), 22 nM; in the assay with melanoma cells (A2058) (setting [14]), 6 nM; in [4] (setting [15]), 1 nM; in assay [5] (setting [16]), 10 nM. Also, the IC50 in assay [11] (setting [17]) was 3 nM; in [6] (setting [18]), 69 nM; in assay [7] (setting [19]), more than 1000 nM; in assay [8] (setting [20]), 3 nM; in assay [9] (setting [21]) it was 22 nM.
As for `CC[C@@]1(O)C(=O)OCc2c1cc1n(c2=O)Cc2c-1nc1cc(F)c(C)c(C#N)c1c2CN` [Compound 16], the IC50 in assay [1] (Homo sapiens, Calu-1, 96 h) worked out at 67 nM; in assay [2] (Homo sapiens, MOLM-13, 96 h), 30 nM; in assay [3] (Homo sapiens, 786-0, 96 h), 8 nM; in the assay on melanoma cells (A2058) (Homo sapiens, A2058, 96 h), 3 nM; in assay [4], 1 nM; in assay [5] (L540cy, 96 h), 5 nM. Further, the IC50 came to 1 nM in assay [11] (96 h); 38 nM in assay [6] (Homo sapiens, MDA-MB-231, 96 h); 6 nM in [7] (Homo sapiens, LS174T, 96 h); 3 nM in [8] (Homo sapiens, SU-DHL-4, 96 h); 7 nM in [9] (Homo sapiens, KARPAS-299, 96 h).
